Entries after “also recorded” stand apart in the source; their conditions may differ. Where a SMILES comes first, the peptide text is derived from it. [ ]: non-standard residue; d: D form. The star is where a group is joined. dPhe(4-NHCONH2) = NC(=O)Nc1ccc(C[C@@H](N)C(=O)O)cc1; Dihydroorotyl(S) = O=C1C[C@@H](C(=O)*)NC(=O)N1; dPhe(4-Cl) = N[C@H](Cc1ccc(Cl)cc1)C(=O)O; Phe(4-NH2) = Nc1ccc(C[C@H](N)C(=O)O)cc1; d2Nal = N[C@H](Cc1ccc2ccccc2c1)C(=O)O; Lys(iPr) = CC(C)NCCCC[C@H](N)C(=O)O; d3Pal = N[C@H](Cc1cccnc1)C(=O)O
Key:
[1] = clinical; conditions: human, in vivo
Description: Throughout the ongoing degarelix development program, population pharmacokinetic/pharmacodynamic (PK/PD) modeling and simulations have been employed to get a better understanding of the PK and PD data, and the relationship between these and other parameters. […] Because of the variability in the population, it was considered that this median plasma concentration might not be sufficient to maintain long-term testosterone suppression in approximately 95% of the patients. It was therefore proposed that the dose administered should produce mean serum trough degarelix levels of >9 ng/ml or higher in the Phase 3 studies for the one-month dosing regimen program.

[2] = clinical; conditions: male, human, in vivo, sc
Experimental: (§1) The present study included a starting degarelix dose of 240 mg (with a concentration of 40 mg/mL of solvent), followed by maintenance doses of degarelix: i.e., 360 mg (with a concentration of 60 mg/mL of solvent) or 480 mg (with a concentration of 60 mg/mL of solvent), the latter administered at Months 1, 4, 7, and 10.
(§2) The study was open labeled and patients received a starting dose of 240 mg (with a concentration of 40 mg/mL of solvent) at Month 0 followed by one of two degarelix maintenance dose treatment regimens: 360 mg (with a concentration of 60 mg/mL of solvent) at Months 1, 4, 7, and 10; or 480 mg (with a concentration of 60 mg/mL of solvent) at Months 1, 4, 7, and 10.
(§3) The starting dose was administered subcutaneously as two injections of 120 mg (with a concentration of 40 mg/ml of solvent, given as 2×3 mL injections). After 28 days a maintenance dose of 360 mg (with a concentration of 60 mg/mL, given as 2×3 mL injections) or 480 mg (with a concentration of 60 mg/mL, given as 2×4 mL injections) was administered, also in two injections (each of 240 mg). Thereafter, with three monthly intervals, maintenance doses were given, again in the form of two injections. […] At each visit, serum testosterone, prostate specific androgen (PSA), and plasma concentration of degarelix were measured by techniques well known in the art.

[3] = system: serum testosterone; experiment: Clinical trial CS18 (Phase 2, three-month dosing regimen): serum testosterone ≦0.5 ng/mL; assay type: in vivo, human; conditions: for cumulative probability of testosterone ≦0.5 ng/mL, Kaplan-Meier estimate / number of patients with testosterone > 0.5 ng/mL: Day 28 to Day 364; for cumulative probability of testosterone ≦0.5 ng/mL, Kaplan-Meier estimate / proportion of patients with testosterone ≦0.5 ng/mL: ITT
Experimental: as §1, §2, §3

[4] = system: serum testosterone; experiment: One-month dosing regimen clinical program: testosterone suppression to castrate level; assay type: in vivo, human; conditions: for testosterone response rate: Day 28 to Day 364
Experimental: Other studies establish that degarelix or pharmaceutically acceptable salt thereof at a dose of 240 mg (40 mg/mL) is an effective starting dose. […] With dosing at 0 months and an additional dosage at 1 month, it is believed that a steady state level is reached faster and this is (together with formulation, dose and concentration) a factor for consideration to obtain and maintain therapeutic levels in the patient. Use of a higher dose as the starting dose to have a ‘true’ 3 month depot is not feasible because of the combined requirements of a sufficient starting/loading phase release to allow buildup of degarelix plasma concentration; and at the same time sufficient long term release to achieve sufficiently high steady state concentration for 3 months. […] This is surprising given the high doses (and concentrations) of degarelix in the defined maintenance dose(s).

Compound `CC(=O)N[C@H](Cc1ccc2ccccc2c1)C(=O)N[C@H](Cc1ccc(Cl)cc1)C(=O)N[C@H](Cc1cccnc1)C(=O)N[C@@H](CO)C(=O)N[C@@H](Cc1ccc(NC(=O)[C@@H]2CC(=O)NC(=O)N2)cc1)C(=O)N[C@H](Cc1ccc(NC(N)=O)cc1)C(=O)N[C@@H](CC(C)C)C(=O)N[C@@H](CCCCNC(C)C)C(=O)N1CCC[C@H]1C(=O)N[C@H](C)C(N)=O` [Degarelix, D-Alaninamide, N-acetyl-3-(2-naphthalenyl)-D-alanyl-4-chloro-D-phenylalanyl-3-(3-pyridinyl)-D-alanyl-L-seryl-4-[[[(4S)-hexahydro-2,6-dioxo-4-pyrimidinyl]carbonyl]amino]-L-phenylalanyl-4-[(aminocarbonyl)amino]-D-phenylalanyl-L leucyl-N6-(1-methylethyl)-L-lysyl-L-prolyl] (Ac-[d2Nal][dPhe(4-Cl)][d3Pal]S[Phe(4-NH2)](Dihydroorotyl(S))[dPhe(4-NHCONH2)]L[Lys(iPr)]P[dA]-NH2) has a level at 672 h [1] of 7.34 ng/mL, a level at 2016 h [1] of 4.54 ng/mL and a level at 1 year ([2]; 360 mg) of roughly 10 ng/mL. For the same compound, the level at 1 year ([2]; 480 mg) was roughly 13 ng/mL, the “cumulative probability of testosterone ≦0.5 ng/mL, Kaplan-Meier estimate” value (“cumulative probability” for short) ([3]; 360 mg (60 mg/mL) maintenance Months 1,4,7,10 after 240 mg start) was 89.0% and the “cumulative probability” value ([3]; 360 mg (60 mg/mL) maintenance Months 1,4,7,10 after 240 mg start, listed as degarelix) was 89.0%. For the same compound, the “patients with sustained testosterone suppression over the course of the observed time period” value ([3]; 360 mg (60 mg/mL) maintenance dose) was “at least 90%”, the “cumulative probability” value ([3]; 480 mg (60 mg/mL) maintenance Months 1,4,7,10 after 240 mg start) was 93.3% and the “cumulative probability” value ([3]; 480 mg (60 mg/mL) maintenance Months 1,4,7,10 after 240 mg start, listed as degarelix) was 93.3%. The “patients with sustained testosterone suppression over the course of the observed time period” value ([3]; 480 mg (60 mg/mL) maintenance dose) was greater than 95%, the “coverage probability (confidence of true suppression rate being greater than 90%)” value ([3]; 360/60 mg) was 39.7% and the “proportion of patients with testosterone ≦0.5 ng/mL” value (“proportion of patients” for short) ([3]; 360/60 mg, Day 28) was 98.5%. For the same compound, the “proportion of patients” value ([3]; 360/60 mg, Day 56) was 100%, the “proportion of patients” value ([3]; 360/60 mg, Day 84) was 100% and the “proportion of patients” value ([3]; 360/60 mg, Day 112) was 96.8%. The “proportion of patients” value ([3]; 360/60 mg, Day 140) was 100%, the “proportion of patients” value ([3]; 360/60 mg, Day 168) was 98.4% and the “proportion of patients” value ([3]; 360/60 mg, Day 196 (before re-dosing at Month 7)) was 90.6%. The “proportion of patients” value ([3]; 360/60 mg, Day 196 (before re-dosing at Month 7), listed as degarelix) was 90.6%, the “proportion of patients” value ([3]; 360/60 mg, Day 224) was 98.4% and the “proportion of patients” value ([3]; 360/60 mg, Day 252) was 98.4%. For the same compound, the “proportion of patients” value ([3]; 360/60 mg, Day 280 (before re-dosing at Month 10)) was 93.3%, the “proportion of patients” value ([3]; 360/60 mg, Day 280 (before re-dosing at Month 10), listed as degarelix) was 93.3% and the “proportion of patients” value ([3]; 360/60 mg, Day 308) was 100%. For the same compound, the “proportion of patients” value ([3]; 360/60 mg, Day 336) was 96.7%, the “proportion of patients” value ([3]; 360/60 mg, Day 364) was 95.0% and the “number of patients with testosterone > 0.5 ng/mL” value (shortened to “number of patients”) ([3]; 360/60 mg, N=67) was 7. For the same compound, the “coverage probability (confidence of true suppression rate being greater than 90%)” value ([3]; 360/60 mg, listed as degarelix) was 39.7%, the “coverage probability (confidence of true suppression rate being greater than 90%)” value ([3]; 480/60 mg) was 79.9% and the “proportion of patients” value ([3]; 480/60 mg, Day 28) was 98.4%. For the same compound, the “proportion of patients” value ([3]; 480/60 mg, Day 56) was 98.4%, the “proportion of patients” value ([3]; 480/60 mg, Day 84) was 98.4% and the “proportion of patients” value ([3]; 480/60 mg, Day 112) was 96.7%. The “proportion of patients” value ([3]; 480/60 mg, Day 140) was 98.3%, the “proportion of patients” value ([3]; 480/60 mg, Day 168) was 98.3% and the “proportion of patients” value ([3]; 480/60 mg, Day 196) was 98.3%. For the same compound, the “proportion of patients” value ([3]; 480/60 mg, Day 224) was 98.3%, the “proportion of patients” value ([3]; 480/60 mg, Day 252) was 100% and the “proportion of patients” value ([3]; 480/60 mg, Day 280) was 98.2%. The “proportion of patients” value ([3]; 480/60 mg, Day 308) was 100%, the “proportion of patients” value ([3]; 480/60 mg, Day 336) was 100% and the “proportion of patients” value ([3]; 480/60 mg, Day 364) was 96.3%. The “number of patients” value ([3]; 480/60 mg, N=66) was 4, the “coverage probability (confidence of true suppression rate being greater than 90%)” value ([3]; 480/60 mg, listed as degarelix) was 79.9% and the “cumulative probability” value ([3]; Total (480 mg and 360 mg arms)) was 92.8%. For the same compound, the “proportion of patients” value ([3]; Total (both arms, after 240 mg starting dose), Day 28) was 98.4%, the “proportion of patients” value ([3]; Total (both arms, after 240 mg starting dose), Day 28, listed as degarelix) was 98% and the “number of patients” value ([3]; Total, N=133) was 11. The “sustained testosterone suppression for 3 months following an injection” value ([4]; doses of 240 mg, 160 mg or 80 mg) was “failed to sustain testosterone suppression for 3 months; also recorded: none of the doses tested in the one-month dosing regimen program could sustain testosterone suppression for 3 months”, the testosterone response rate ([4]; monthly maintenance 80 mg (20 mg/mL)) was 98% and the testosterone response rate ([4]; monthly maintenance 160 mg (40 mg/mL)) was 100%. For the same compound, the “patients with testosterone suppressed to castrate level (T≦0.5 ng/mL)” value ([4]; starting dose 240 mg (40 mg/mL), first 28 days) was 95%.

Reference: US8722088B2, “Pharmaceutical compositions and methods for the treatment of prostate cancer” (Ferring International Center S.A., priority 2009, dated 2014)
